Experimental data: patent US6084130A, “Aryl substituted bicyclic amines as selective dopamine D3 ligands” (Pharmacia & Upjohn Company, priority 1997, dated 2000)

What was measured:
D3-DOP-CLONE [1] = target: T1, D3-DOP-CLONE (Rattus norvegicus, UniProt P19020); assay: Competition binding against [3H]-spiperone, cloned rat D3 receptors expressed in CHO-K1 cells (Table I); design: key to Ki (nM): *: indicates compound was inactive; settings: ligand SPI (0.5 nM)
T1 construct: expressed in transfected cells; host or cells: CHO-K1
Protocol: (§1) Competition binding experiments employed eleven dilutions of test compounds of Formula I competing with [^3 H]-5-(dipropylamino)-5,6-dihydro-4H-imidazo(4,5,1-ij)quinolin-2(1H)-one (R-enantiomer) ("86170") (62 Ci/mmol, 2 nM) and [^3 H]-spiperone ("SPI") (107 Ci/mmol, 0.5 nM) for D2 and D3 binding sites, respectively. (Lahti, R. A., Eur. J. Pharmacol., 202, 289 (1991)) In each experiment, cloned rat receptors expressed in CHO-K1 cells were used. (Chio, C. L., Nature, 343, 266 (1990); and Huff, R. M., Mol. Pharmacol. 45, 51-60 (1993)).

D2-DOP-CLONE [2] = target: T2, D2-DOP-CLONE (Rattus norvegicus, UniProt P61169); assay: Competition binding against [3H]-86170, cloned rat D2 receptors expressed in CHO-K1 cells (Table I); design: key to Ki (nM): *: indicates compound was inactive; settings: ligand 86170 (2 nM)
T2 construct: expressed in transfected cells; host or cells: CHO-K1
Protocol: as §1

D2-DOP-CLONE [3] = target: T2, D2-DOP-CLONE; assay: Competition binding against [3H]-86170, cloned rat D2 receptors expressed in CHO-K1 cells (Table II); settings: ligand 86170 (2 nM)
Protocol: as §1, with “As was done for Table I, competition binding” for “Competition binding”, “Formula II” for “Formula I”, “[^3 H]-7-OH-DPAT ("7-OH-DPAT")” for “[^3 H]-spiperone ("SPI")”, “Mol. Pharmacol.,” for “Mol. Pharmacol.”, “51-60 (1993). Ki values were calculated with the Chen-Prushoff equation. The results are shown in Table II for compounds prepared under Scheme 5.” for “51-60 (1993)).”

D3-DOP-CLONE [4] = target: T1, D3-DOP-CLONE; assay: Competition binding against [3H]-7-OH-DPAT, cloned rat D3 receptors expressed in CHO-K1 cells (Table II); settings: ligand 7-OH-DPAT (0.5 nM)
Protocol: as §1, with “As was done for Table I, competition binding” for “Competition binding”, “Formula II” for “Formula I”, “[^3 H]-7-OH-DPAT ("7-OH-DPAT")” for “[^3 H]-spiperone ("SPI")”, “Mol. Pharmacol.,” for “Mol. Pharmacol.”, “51-60 (1993). Ki values were calculated with the Chen-Prushoff equation. The results are shown in Table II for compounds prepared under Scheme 5.” for “51-60 (1993)).”

Dopamine = Dopamine screen; format: binding

T1 sequence (P19020 whole entry): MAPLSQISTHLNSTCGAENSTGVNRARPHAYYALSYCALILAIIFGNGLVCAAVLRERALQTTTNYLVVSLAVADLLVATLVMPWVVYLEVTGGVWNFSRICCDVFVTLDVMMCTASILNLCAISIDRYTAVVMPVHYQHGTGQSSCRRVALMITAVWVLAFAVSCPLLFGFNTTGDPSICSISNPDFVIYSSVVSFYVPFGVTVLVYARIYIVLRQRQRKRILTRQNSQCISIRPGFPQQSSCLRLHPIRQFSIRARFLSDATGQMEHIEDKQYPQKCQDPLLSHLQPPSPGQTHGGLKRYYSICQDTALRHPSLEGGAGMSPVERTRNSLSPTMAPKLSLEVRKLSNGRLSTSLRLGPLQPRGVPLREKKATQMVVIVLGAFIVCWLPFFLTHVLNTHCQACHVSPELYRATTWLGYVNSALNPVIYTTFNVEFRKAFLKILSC
T2 sequence (P61169 whole entry): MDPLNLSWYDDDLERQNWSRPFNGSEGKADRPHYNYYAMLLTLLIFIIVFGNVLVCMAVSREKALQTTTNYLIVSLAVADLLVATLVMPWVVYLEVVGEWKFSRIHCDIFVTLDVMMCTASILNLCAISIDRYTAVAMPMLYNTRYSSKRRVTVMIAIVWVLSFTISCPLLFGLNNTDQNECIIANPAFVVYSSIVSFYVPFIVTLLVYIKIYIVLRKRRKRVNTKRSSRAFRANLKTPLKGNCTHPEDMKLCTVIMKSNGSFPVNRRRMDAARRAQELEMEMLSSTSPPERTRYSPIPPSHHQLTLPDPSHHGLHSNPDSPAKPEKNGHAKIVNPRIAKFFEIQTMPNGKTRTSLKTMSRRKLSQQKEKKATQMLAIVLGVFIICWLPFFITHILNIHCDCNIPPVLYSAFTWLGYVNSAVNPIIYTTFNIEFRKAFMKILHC

| Ki (D3-DOP-CLONE [1]) [nM] | Ki (D2-DOP-CLONE [2]) [nM] | SMILES | also measured |
| --- | --- | --- | --- |
| 18 | 324 | CCCN(CCC)[C@@H]1CCc2ccc(NS(=O)(=O)c3ccc(Cl)cc3)cc2C1 [Example 10, (R)-4-Chloro-N-[7-(dipropylamino)-5,6,7,8-tetrahydro-2-naphthalenyl]benzenesulfonamide] |  |
|  |  | CCCN(CCC)C1CCc2nc(OS(=O)(=O)c3ccc(Cl)cc3)ccc2C1 (centres unmarked) [Compound 53] | Ki (D2-DOP-CLONE [3]): 184 nM; Ki (D3-DOP-CLONE [4]): 3 nM |
| 12 | 206 | CCCN(CCC)[C@@H]1CCc2ccc(CNS(=O)(=O)c3ccc(Cl)cc3)cc2C1 [Example 3, (R)-4-Chloro-N-[[7-(dipropylamino)-5,6,7,8-tetrahydro-2-naphthalenyl]methyl]benzenesulfonamide] |  |
| 87 | 177 | CCCN(CCC)[C@@H]1CCc2ccc(CNC(=O)c3ccc(Cl)cc3)cc2C1 [Example 8, (R)-4Chloro-N-[[7-(dipropylamino)-5,6,7,8-tetrahydro-2-naphthalenyl]methyl]benzamide] |  |
| 109 | 772 | CCCN(CCC)[C@@H]1CCc2ccc(CNS(=O)(=O)c3ccc([N+](=O)[O-])cc3)cc2C1 [Example 4, (R)-4-Nitro-N-[[7-(dipropylamino)-5,6,7,8-tetrahydro-2-naphthalenyl]methyl]benzenesulfonamide] |  |
| 32 | 1440 | CCCN(CCC)[C@@H]1CCc2ccc(CNS(=O)(=O)c3ccc(C#N)cc3)cc2C1 [Example 2, (R)-4-Cyano-N-[[7-(dipropylamino)-5,6,7,8-tetrahydro-2-naphthalenyl]methyl]benzenesulfonamide] |  |
| 195 | > 2240 | CCCN(CCC)[C@@H]1CCc2ccc(NS(=O)(=O)c3ccc(C#N)cc3)cc2C1 [Example 11, (R)-4-Cyano-N-[7-(dipropylamino)-5,6,7,8-tetrahydro-2-naphthalenyl]benzenesulfonamide] |  |
| 1450 | 1680 | CCCN(CCC)[C@@H]1CCc2ccc(CNS(=O)(=O)c3cn(C)cn3)cc2C1 [Example 6, (R)-N-[[7-(Dipropylamino)-5,6,7,8-tetrahydro-2-naphthalenyl]methyl]1-methyl-1H-imidazole-4-sulfonamide] |  |
|  |  | CCCNC1CCc2nc(OS(=O)(=O)c3ccc(Cl)cc3)ccc2C1 (centres unmarked) [Compound 52] | Ki (D2-DOP-CLONE [3]): 357 nM; Ki (D3-DOP-CLONE [4]): 6 nM |
|  |  | CCCN(CCC)[C@@H]1CCc2ccc(CNC(=O)c3ccc(C#N)cc3)cc2C1 [Example 9, (R)-4-Cyano-N-[[7-(dipropylamino)-5,6,7,8-tetrahydro-2-naphthalenyl]methyl]benzamide] | Ki (nM) (D3-DOP-CLONE [1]): *; Ki (nM) (D2-DOP-CLONE [2]): * |
|  | 786 | CCCN(CCC)[C@@H]1CCc2ccc(CNS(=O)(=O)c3cccc(C#N)c3)cc2C1 [Example 5, (R)-3-Cyano-N-[[7-(dipropylamino)-5,6,7,8-tetrahydro-2-naphthalenyl]methyl]benzenesulfonamide] | activity in dopamine screen (Dopamine): Inactive; Ki (nM) (D3-DOP-CLONE [1]): * |
